Assay results reported in patent publication US20090214459A1, “METHOD OF USING CERTAIN CATIONIC POLYMERS AS ANTIOXIDANTS OR FREE-RADICAL SCAVENGERS” (priority 2008, published 2009).

Test system: HaCaT keratinocytes exposed to UVA
Experiment: Antioxidant/free-radical scavenging activity with respect to UVA oxidative stress induced on keratinocytes (DCFH-DA fluorescent probe)
Assay type: cell-based
Conditions: 30 μM, 24 hours pre-incubation, UVA 2 J/cm^2, DCF fluorescence
Description: Method for Evaluating the Antioxidant/Free-Radical Scavenging Activity of the Polymers of the Invention with Respect to a UVA Oxidative Stress Induced on Keratinocytes
The technique for evaluating the photoprotection was carried out according to a well-known method (J. of Photochemistry and Photobiology B: Biology 57 (2000) 102-112 TOBI et al: Glutathione modulates the level of free radicals produced in UVA irradiated cells). This technique used a fluorescent probe, a marker for intracellular global oxidative stress, 2′-7′-dichlorofluorescin diacetate (DCFH-DA).
The use of DCFH-DA as a marker of the oxidative stress rests on its physicochemical properties. It is an apolar and non-ionic molecule capable of diffusing through cell membranes. Once inside the cell, DCFH-DA will be hydrolysed by intracellular esterases to a non-fluorescent compound: DCFH or 2,7-dichlorofluorescin. In the presence of activated oxygen species, DCFH is rapidly oxidized to a highly fluorescent compound: DCF or 2,7-dichlorofluorescein.
Three compounds were tested: hexadimethrine chloride (MEXOMERE PO from Chimex corresponding to a polycondensate of formula (I)), citric acid and glycine (0.0001% w/v for the MEXOMERE PO, 30 μM for the citric acid and the glycine). […]
The fluorescence of DCF was evaluated immediately after the exposure to UVA, by spectrofluorimetry (excitation: 480 nm; emission: 530 nm).

SMILES | level of protection (antioxidant efficacy with respect to UVA oxidative stress) [%]
O=C(O)CC(O)(CC(=O)O)C(=O)O [Citric acid, citric acid] | ~18
NCC(=O)O [glycine] | ~15
